Assay results from patent publication US9993494B2, “Compositions and methods for treating fibrotic disease” (eFFECTOR Therapeutics, Inc., priority 2014, dated 2018).

System: normal human lung fibroblasts
Assay: Ribosomal profiling: translational efficiency in TGFβ-treated fibroblasts
Format: cell-based
Conditions: TGFβ-treated fibroblasts
Summary of the method: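 Genome-wide RPF and total RNA libraries (ARTseq, RNA-Seq) were made from lysates of cycloheximide-treated, PBS-washed cells. After trimming and human-genome mapping, per-gene coding-region counts were compared between RPF and RNA for translational efficiency. Genes scoring low in either fraction were dropped.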

Cc1cc(C2CCCCC2)n(O)c(=O)c1.NCCO [CPX, ciclopirox oloamine]
renormalizing the translational profile of RPL9 (ENSG00000163682): − (− = <0.9)
renormalizing the translational profile of RHOBTB3 (ENSG00000164292): − (− = <0.9)
renormalizing the translational profile of RPL36AL (ENSG00000165502): − (− = <0.9)
renormalizing the translational profile of RPL27A (ENSG00000166441): − (− = <0.9)
renormalizing the translational profile of RP11-382A20.3.1 (ENSG00000166503): − (− = <0.9)
renormalizing the translational profile of ANKDD1A (ENSG00000166839): − (− = <0.9)
renormalizing the translational profile of RPL13 (ENSG00000167526): − (− = <0.9)
renormalizing the translational profile of EEF2 (ENSG00000167658): − (− = <0.9)
renormalizing the translational profile of CA5B (ENSG00000169239): − (− = <0.9)
renormalizing the translational profile of KIAA1024 (ENSG00000169330): − (− = <0.9)
renormalizing the translational profile of MURC (ENSG00000170681): − (− = <0.9)
renormalizing the translational profile of HTRA3 (ENSG00000170801): − (− = <0.9)
renormalizing the translational profile of PDE7B (ENSG00000171408): − (− = <0.9)
renormalizing the translational profile of LPAR3 (ENSG00000171517): − (− = <0.9)
renormalizing the translational profile of CTPS (ENSG00000171793): − (− = <0.9)
renormalizing the translational profile of QARS (ENSG00000172053): − (− = <0.9)
renormalizing the translational profile of RPL38 (ENSG00000172809): − (− = <0.9)
renormalizing the translational profile of MRPL45 (ENSG00000174100): − (− = <0.9)
renormalizing the translational profile of RPL4 (ENSG00000174444): − (− = <0.9)
renormalizing the translational profile of RPL15 (ENSG00000174748): − (− = <0.9)
renormalizing the translational profile of DES (ENSG00000175084): − (− = <0.9)
renormalizing the translational profile of EIF3F (ENSG00000175390): − (− = <0.9)
renormalizing the translational profile of CLCF1 (ENSG00000175505): − (− = <0.9)
renormalizing the translational profile of AMIGO3 (ENSG00000176020): − (− = <0.9)
renormalizing the translational profile of C14orf49 (ENSG00000176438): − (− = <0.9)
renormalizing the translational profile of RPLP2 (ENSG00000177600): − (− = <0.9)
renormalizing the translational profile of IMPDH2 (ENSG00000178035): − (− = <0.9)
renormalizing the translational profile of DNAJC22 (ENSG00000178401): − (− = <0.9)
renormalizing the translational profile of RPL35A (ENSG00000182899): − (− = <0.9)
renormalizing the translational profile of LENG9 (ENSG00000182909): − (− = <0.9)
renormalizing the translational profile of C22orf32 (ENSG00000183172): − (− = <0.9)
renormalizing the translational profile of PDE4B (ENSG00000184588): − (− = <0.9)
renormalizing the translational profile of ROBO2 (ENSG00000185008): + (+ = 0.9 to 1.5)
renormalizing the translational profile of PTCH1 (ENSG00000185920): − (− = <0.9)
renormalizing the translational profile of POLR1D (ENSG00000186184): − (− = <0.9)
renormalizing the translational profile of DYNC2H1 (ENSG00000187240): − (− = <0.9)
renormalizing the translational profile of RPL14 (ENSG00000188846): − (− = <0.9)
renormalizing the translational profile of LRRK2 (ENSG00000188906): − (− = <0.9)
renormalizing the translational profile of NACA (ENSG00000196531): − (− = <0.9)
renormalizing the translational profile of LAMB3 (ENSG00000196878): + (+ = 0.9 to 1.5)
renormalizing the translational profile of PCBP2 (ENSG00000197111): − (− = <0.9)
renormalizing the translational profile of MAP3K5 (ENSG00000197442): − (− = <0.9)
renormalizing the translational profile of RPL37A (ENSG00000197756): − (− = <0.9)
renormalizing the translational profile of RPL12 (ENSG00000197958): − (− = <0.9)
renormalizing the translational profile of LPAR1 (ENSG00000198121): − (− = <0.9)
renormalizing the translational profile of RPL23A (ENSG00000198242): − (− = <0.9)
renormalizing the translational profile of PLN (ENSG00000198523): − (− = <0.9)
renormalizing the translational profile of RPL10A (ENSG00000198755): − (− = <0.9)
renormalizing the translational profile of CES1 (ENSG00000198848): + (+ = 0.9 to 1.5)
renormalizing the translational profile of RPL39 (ENSG00000198918): − (− = <0.9)
renormalizing the translational profile of CARD16 (ENSG00000204397): − (− = <0.9)
renormalizing the translational profile of MICA (ENSG00000204520): − (− = <0.9)
renormalizing the translational profile of GNB2L1 (ENSG00000204628): − (− = <0.9)
renormalizing the translational profile of RPL17 (ENSG00000215472): − (− = <0.9)
renormalizing the translational profile of RPL41 (ENSG00000229117): − (− = <0.9)
renormalizing the translational profile of ARPC1A (ENSG00000241685): − (− = <0.9)
renormalizing the translational profile of CHCHD10 (ENSG00000250479): − (− = <0.9)
renormalizing the translational profile of EEF1G (ENSG00000254772): − (− = <0.9)
number of genes whose translational efficiency was uniquely modulated by the compound (duplicate ribosomal profiles): six
effect in renormalizing the translational profile of the gene (gene RPS2 (ENSG00000140988)): − (− = <0.9)
effect in renormalizing the translational profile of the gene (gene RPS3 (ENSG00000149273)): − (− = <0.9)
effect in renormalizing the translational profile of the gene (gene RPS3A (ENSG00000145425)): − (− = <0.9)
effect in renormalizing the translational profile of the gene (gene RPS4X (ENSG00000198034)): − (− = <0.9)
effect in renormalizing the translational profile of the gene (gene RPS4Y1 (ENSG00000129824)): − (− = <0.9)
effect in renormalizing the translational profile of the gene (gene RPS5 (ENSG00000083845)): − (− = <0.9)
